Reference: patent publication US4607023A, “Natriuretic” (L'Institut de Recherches Cliniques de Montreal, priority 1983, dated 1986)
Entries after “also recorded” stand apart in the source; their conditions may differ. Bridge positions count the residues as written; N and C are the ends.

Assays:
[1] = system: female Sprague-Dawley rats; experiment: Natriuretic and diuretic bioassay: urinary Na+ excretion after i.v. bolus in anesthetized rats; type: in vivo, rat; settings: for natriuretic activity, comparison in words (FIG. 12): 15 to 1350 pmoles i.v. bolus, change of Na+ excretion per 20 min, at least four rats per dose
Procedure: Diuretic and natriuretic activities of the ANFs are determined by the method of Garcia et al., (1982) Experientia 38, 1071-1073 and of Thibault et al., (1983) Hypertension 5, (Suppl. I), 75-80, both cited above, in female Sprague-Dawley rats (180-200 g) anesthetized with pentobarbital (60 mg/kg i.p.) equipped with a bladder catheter and an intrajugular vein catheter. The animals receive an infusion of 5% dextrose (3 ml/hr) for 45 minutes before the assay and during the evaluation period. Urine is collected in pre-weighed vials for 20 minute intervals. Following a basal collection period the ANFs to be assayed are injected as a bolus of 1 ml in Krebs solution pH 7.4 via the intrajugular vein catheter, urine is collected for a 20 minute period, and sodium concentrations are determined by flame photometry. Results are expressed as μEq of Na^+ for the collection period of 20 minutes from which the sodium excretion of the control period has been subtracted (ΔμEq Na^+ /20 min), and specific activity is defined as ΔμEq Na^+ /20 min/mg of protein. Protein is measured by the Bradford assay, see Spector, T. (1978) Anal. Biochem. 86, 142-146, with bovine albumin as a standard except for substantially pure ANFs where the amount of peptide is estimated from the amino acid sequencer.
Generally, in the purification procedures described above, unless otherwise specified all procedures are carried out at 4° C. At the end of each chromatographic step the material is lyophilized and then stored at -20° C. until used. For small volume (<6 ml) lyophilization is carried out in polystyrene tubes (1.5×7 cm) in a Savant Speed Vac concentrator. Larger volumes in the first steps are lyophilized in glass flasks. For subsequent steps, samples are dissolved in 1 to 3 ml of 0.01M ammonium acetate, pH 5.0, and aliquots are taken for the biological assay (Garcia et al., (1982) Experientia 38, 1071-1073, cited above) which are done in duplicate.
Generally, in the purification procedures discussed above, unless otherwise specified all procedures were carried out at 4° C. At the end of each chromatographic step the material was lyophilized and then stored at -20° C. until used. For small volume (<6 ml) lyophilization was carried out in polystyrene tubes (1.5×7 cm) in a Savant Speed Vac concentrator. Larger volumes in the first steps were lyophilized in glass flasks. For subsequent steps, samples were dissolved in 1 to 3 ml of 0.01M ammonium acetate, pH 5.0. Aliquots were taken for the biological assay (Garcia et al. (1982) Experientia 38, 1071-1073) which were done in duplicate. Proteins were measured by the Bradford assay (Spector, T. (1978) Anal. Biochem. 86, 142-146) with bovine albumin as a standard except in the last step where the amount of peptides was estimated from the amino acid sequencer.
The natriuretic activities of native ANF(2-33), ANF(3-33) and synthetic ANF(8-33) acid or amide forms were determined by a biological assay (Garcia, R., Cantin, M., Thibault, G., Ong, H. and Genest, J. (1982) Experientia 38: 1071-1073; Thibault, G., Garcia, R., Cantin, M., and Genest, J. (1983) Hypertension 5 (Suppl. I): 75-83), both references cited above. Female Sprague-Dawley rats (180-200 g) were used as bioassay animals. They were anesthetized with pentobarbital (60 mg/kg i.p.) and a bladder catheter and an intrajugular vein catheter were installed. The animals received a 5% (W/V) dextrose infusion (2.1 ml/hr) 30 minutes before the assay and during the evaluation period. Urine was collected in preweighed vials for 20-minute intervals. After a basal collection period, the ANF peptides (native ANF(2-33) or (3-33) or synthetic (8-33) acid or amide forms; 15 to 1350 pmoles) were injected in a bolus injection in 1 ml of Krebs solution, pH 7.4. Each dose was injected in at least four rats. The sodium concentration was measured by a flame photometer. The results are expressed in terms of change of Na^+ excretion per 20 min±SEM.

[2] = system: rabbit renal arteries (helical vascular strips); experiment: Vasorelaxant activity in vitro on norepinephrine-contracted rabbit renal artery strips; type: cell-based; settings: 0.25 μg peptide added to the bath 5 min before the cumulative NE curve; p<0.01
Procedure: The vasorelaxant activities of the ANFs of this invention are determined in vitro by means of a procedure involving the use of mammalian vascular strips. Briefly, healthy rabbits are anesthetized with sodium pentobarbital (30 mg/kg i.v.), their renal arteries are rapidly excised, fat and connective tissure are trimmed off, and the arterial issue is helically cut. The helical strips thus obtained are mounted between a fixed base and a force displacement transducer, immersed in a bath of continuously oxygenated Krebs solution at 37° C. and pH 7.4, and a tension of 500-700 mg is applied to the strip of arterial tissue. L-Norepinephrine bitartrate (NE) is added to the bath to obtain concentrations of NE ranging from 3.9×10^-6 to […], the contractions elicited by NE are registered on a polygraph, and a cumulative dose-response curve is established. Once a standard curve is reproducible it is repeated five minutes after having added 0.25 μg of the respective ANF to the bath. […]
For each arterial strip a cumulative dose-response curve to NE (L-norepinephrine bitartrate, Sigma Chemicals) ranging from 3.9×10^-6 to 1.6×10^-2 mM was obtained. […] The contraction elicited for each dose of NE is expressed as a percent of the maximum response.
Results are expressed as mean ±SEM. […]

[3] = native peptide peaks after last step, CN μBondapak column, high molecular weight region, rat bioassay

Row | Substance | natriuretic activity, comparison in words (FIG. 12) [1] | specific activity of the material recovered (natriuretic) ([1]; after CN μBondapak reverse phase HPLC, partial inactivation of the peptide) | specific activity (natriuretic) ([1]; material at the Mono S column step, fractions 40 to 44 minutes, low molecular weight region) | diuretic and natriuretic activity, general statements in words ([1]; rat bioassay) | vasorelaxant activity: displacement of the norepinephrine dose-response curve (FIG. 13) [2] | specific activity (natriuretic) [1, 3]
1 | H-Gly-Pro-Arg-Ser-Leu-Arg-Arg-Ser-Ser-Cys-Phe-Gly-Gly-Arg-Ile-Asp-Arg-Ile-Gly-Ala-Gln-Ser-Gly-Leu-Gly-Cys-Asn-Ser-Phe-Arg-Tyr-OH (H-GPRSLRRSSCFGGRIDRIGAQSGLGCNSFRY-OH; disulfide 10-26; ends not checked) [ANF(3-33), native rat atrial natriuretic factor of 31 amino acid residues] | comparable natriuretic activities | 84,000 μEq Na^+ excreted/20 min/mg | 131,000 μEq of Na^+ excreted/20 min/mg | biologically active | displacing the response to norepinephrine (NE) to the right | –
2 | H-Leu-Ala-Gly-Pro-Arg-Ser-Leu-Arg-Arg-Ser-Ser-Cys-Phe-Gly-Gly-Arg-Ile-Asp-Arg-Ile-Gly-Ala-Gln-Ser-Gly-Leu-Gly-Cys-Asn-Ser-Phe-Arg-Tyr-OH (H-LAGPRSLRRSSCFGGRIDRIGAQSGLGCNSFRY-OH; disulfide 12-28; ends not checked) [ANF(1-33), native rat atrial natriuretic factor of 33 amino acid residues, disulfide bridge Cys12-Cys28] | – | – | – | biologically active | – | 297,000 μEq of Na^+ excreted/20 min/mg
3 | H-Arg-Arg-Ser-Ser-Cys-Phe-Gly-Gly-Arg-Ile-Asp-Arg-Ile-Gly-Ala-Gln-Ser-Gly-Leu-Gly-Cys-Asn-Ser-Phe-Arg-Tyr-OH (H-RRSSCFGGRIDRIGAQSGLGCNSFRY-OH; disulfide 5-21; ends not checked) [ANF(8-33), native rat atrial natriuretic factor of 26 amino acid residues] | – | – | – | more active than ANF(3-33) or ANF(1-33) | – | 450,000 μEq of Na^+ excreted/20 min/mg
4 | H-Ala-Gly-Pro-Arg-Ser-Leu-Arg-Arg-Ser-Ser-Cys-Phe-Gly-Gly-Arg-Ile-Asp-Arg-Ile-Gly-Ala-Gln-Ser-Gly-Leu-Gly-Cys-Asn-Ser-Phe-Arg-Tyr-OH (H-AGPRSLRRSSCFGGRIDRIGAQSGLGCNSFRY-OH; disulfide 11-27; ends not checked) [ANF(2-33), native rat atrial natriuretic factor of 32 amino acid residues] | slightly higher than that of the above compounds; also recorded: slightly higher than that of the other forms | – | – | – | – | –
